These results are taken from publication PMC7269481, “ZN148 Is a Modular Synthetic Metallo-β-Lactamase Inhibitor That Reverses Carbapenem Resistance in Gram-Negative Pathogens In Vivo” (Antimicrobial Agents and Chemotherapy, 2020).

SMILES strings stand for the structures. pIC50, pKd: −log10 of the molar value. Read-outs that look alike come from different tables or passages of the source.

For test [1], the system named is K. pneumoniae co-producing MBLs and class A/D serine carbapenemases. As to the kind of experiment: Carbapenem MIC, K. pneumoniae co-producing MBLs and class D carbapenemases. The test is classed as cell-based. The following applies: carbapenem alone or with 50µM ZN148, one value per strain. As to the method: (§1) MICs of carbapenems alone and in combination with inhibitors were determined by broth microdilution according to the Clinical and Laboratory Standards Institute (CLSI) guidelines ([48]) using either premade plates (TREK Diagnostic Systems/Thermo Fisher Scientific, East Grinstead, United Kingdom) with meropenem or in-house-prepared plates with meropenem, imipenem, and doripenem. ZN148 and other inhibitors were tested at a fixed concentration of 50 μM. Cation-adjusted Mueller-Hinton medium (TREK Diagnostic Systems/Thermo Fisher Scientific; Becton Dickinson, Franklin Lakes, NJ) were used as growth medium. The plates were incubated for 20 h at 37°C. ZN148, ZN222, ZN223, ZN228, and TPA were initially tested in combination with meropenem using two indicator strains: NDM-1-producing K. pneumoniae ([49], [50]) and VIM-2-producing P. aeruginosa ([51]). The activity of ZN148 were subsequently tested against two extended strain collections: (i) in combination with meropenem against MBL-producing Enterobacterales (n = 62), MBL-producing P. aeruginosa (n = 9) and MBL- and class D carbapenemase-coproducing Enterobacterales (n = 5) from the strain collection at the Norwegian National Advisory Unit on Detection of Antimicrobial Resistance and (ii) in combination with meropenem, imipenem, and doripenem against globally collected MBL-producing E. coli (n = 87), K. pneumoniae (n = 85), P. aeruginosa (n = 52), and A. baumannii (n = 6), MBL- and class A/D carbapenemase-coproducing E. coli (n = 11), K. pneumoniae (n = 15) and A. baumannii (n = 7) at IHMA Europe, Sàrl, Switzerland. E. coli ATCC 25922 and P. aeruginosa ATCC 27853 were used as quality control strains. The MBL inhibitors were also tested for intrinsic antibacterial activity against the strains.

The subject of test [2] is NDM-1-producing A. baumannii strains (n=6). Briefly: Carbapenem MIC, NDM-1-producing A. baumannii. The format is cell-based. The following applies: carbapenem alone or in combination with 50µM ZN148; one value per strain (n=6). As to the method: as §1
Test [3] deals with A. baumannii co-producing MBLs and class A/D serine carbapenemases. As to the kind of experiment: Carbapenem MIC, A. baumannii co-producing NDM-1 and class D carbapenemases. The following applies: carbapenem alone or with 50µM ZN148, one value per strain. The format is cell-based. The procedure:
as §1

Test [4] concerns class A carbapenemase (KPC)-producing E. coli. Briefly: Carbapenem MIC, class A carbapenemase-producing E. coli. The format is cell-based. The following applies: carbapenem alone or with 50µM ZN148. The procedure:
as §1

Test [5] has as its system class A carbapenemase (KPC)-producing E. cloacae. Briefly: Carbapenem MIC, class A carbapenemase-producing E. cloacae. The test is classed as cell-based. The following applies: carbapenem alone or with 50µM ZN148. As to the method:
as §1

The test system of test [6] is E. coli co-producing MBLs and class A/D serine carbapenemases. As to the kind of experiment: Carbapenem MIC, E. coli co-producing MBLs and class A/D serine carbapenemases. The format is cell-based. The following applies: carbapenem alone or with 50µM ZN148. As to the method: as §1
Test [7] concerns the target T1, VIM-2 (Escherichia coli, UniProt Q5U7L7).
T1 construct: made in house
The test is classed as biochemical. The following applies: VIM-2 preincubated with inhibitor. As to the method: VIM-2 (0.4 μM) was preincubated on ice for 30 min with or without ZN148. Complete protein unfolding was archived in 50 mM HEPES buffer (pH 7.5) supplemented with 1 μM ZnSO4 (Sigma-Aldrich) and 8 M urea (Merck, Darmstadt, Germany). Refolding was achieved by a stepwise buffer exchange using centrifugal cutoff filters (10 kDa; Merck) and decreasing concentrations of urea ([…] in 50 mM HEPES buffer [pH 7.5]). VIM-2 was diluted to a final concentration of 1 nM, and the enzyme activity was measured by adding nitrocefin (Merck) to a final concentration of 50 μM.

In test [8] the target is T1, VIM-2. The test is classed as biochemical. The conditions noted are these: after incubation with inhibitor and its removal (PD-10); 100 μM ZnSO4. The procedure:
For reversibility of enzyme activity after incubation with ZN148, 3 ml of VIM-2 or NDM-1 was diluted with or without ZN148 in Chelex HEPES buffer (pH 7.5) and subsequently incubated for 1 h on ice. Then, 2.5 ml of each solution was loaded onto an equilibrated PD-10 column (GE Healthcare, Pittsburgh, PA), washed with 1 ml, and eluted with 1.5 ml of Chelex HEPES buffer (pH 7.5), respectively. Samples spiked and not spiked with inhibitor were diluted to a final enzyme concentration of 1 nM VIM-2 and 3 nM NDM-1. The initial reaction velocity was determined by adding nitrocefin (Merck) for VIM-2 or imipenem (Sigma-Aldrich) for NDM-1 at final concentrations of 50 and 100 μM, respectively. The initial enzyme reactions were recorded at 25°C. Inhibitor and enzyme alone were included as controls. All measurements were performed at least in duplicates. For enzyme restorability, pre- and postcolumn samples were supplemented with ZnSO4 (Sigma-Aldrich) to a final concentration of 100 μM and allowed to incubate for 5 min at 25°C. The initial enzyme velocity was then determined as described above.

For test [9] the following is noted: read-out: affinity toward Zn^2+; cited from earlier work.
Test [10] deals with NDM-1-producing K. pneumoniae K66-45. Briefly: Meropenem MIC, broth microdilution, indicator strain K66-45. The format is cell-based. The following applies: meropenem alone or in combination with 50 μM of the labelled inhibitor. As to the method:
as §1

In a further test the test system is HepG2 cells. Briefly: In vitro toxicity, alamarBlue viability. The format is cell-based, human. The following applies: 24 h. As to the method:
The human hepatoblastoma HepG2 cell line (HB-8065; ATCC, Manassas, VA) was cultured in DMEM-GlutaMAX (5.5 mM glucose; Thermo Fisher) supplemented with 10% fetal bovine serum (Sigma-Aldrich), streptomycin (100 μg/ml; Gibco/Thermo Fisher), and penicillin (100 U/ml; Gibco/Thermo Fisher) at 37°C in 5% CO2. For viability assays, cells were seeded in white 96-well Nunclon plates (Sigma-Aldrich) at a density of 20,000 cells/well and left overnight to adhere. ZN148 and TPA (Sigma-Aldrich, Darmstadt, Germany) dissolved in dimethyl sulfoxide (DMSO; (Sigma-Aldrich) were added to the white 96-well plates containing 20,000 HepG2 cells/well at concentrations ranging from 1 to 1 × 10^−3 mM (a DMSO concentration kept below 1%), followed by incubation for 24 h at 37°C in 5% CO2. After 24 h, alamarBlue cell viability reagent (Thermo Fisher, Carlsbad, CA) was added (10% final concentration), followed by incubation for 4 h at 37°C. The proportion of viable cells in each well was measured in a fluorescence plate reader (Clariostar; BMGlabtech, Germany) at excitation 550 nm/emission 603 nm ([56]). Data from eight replicates were fitted by nonlinear regression to determine IC50 values using Prism (GraphPad Software, Inc.).
Background: Resazurin is reduced to fluorescent resorufin, in cell work by metabolically active cells.

The subject of test [11] is VIM-2-producing P. aeruginosa K34-7. Briefly: Meropenem MIC, broth microdilution, indicator strain K34-7. The test is classed as cell-based. The following applies: meropenem alone or in combination with 50 μM of the labelled inhibitor. The procedure: as §1
Background: Broth dilution looks for growth in wells or tubes with falling amounts of substance.

Test [12] deals with T1, VIM-2. As to the kind of experiment: Time-dependent inactivation kinetics of purified VIM-2 (nitrocefin). The test is classed as biochemical. The procedure:
(§2) Protein expression and purification of NDM-1 and VIM-2 were performed as previously described ([36], [43], [57]). Stock solutions of purified NDM-1 and VIM-2 were prepared in 50 mM HEPES buffer (pH 7.5; Merck). Inhibition of NDM-1 and VIM-2 were determined for ZN148 and the analogues ZN222, ZN223, and ZN228 at different concentrations of inhibitor after preincubation times of 2, 8, 15, 25, and 32 min in 50 mM HEPES buffer (pH 7.5) supplemented with 1 μM ZnSO4 (Sigma-Aldrich) and bovine serum albumin (Sigma-Aldrich; final concentration, 2 μg/ml) at 25°C. Concentrations of 1 nM VIM-2 and 30 nM NDM-1 were used, and the reaction was initiated by the addition of 30 μM nitrocefin (Merck) for VIM-2 or 100 μM imipenem (Sigma-Aldrich) for NDM-1. The reaction was measured at 482 nm (VIM-2) or […] (NDM-1) in either standard 96-well plates (Thermo Fisher Scientific) for VIM-2 or UV-transparent 96-well plates (Corning, Kennebunk, ME) for NDM-1 at 25°C in a SpectraMax Plus plate reader (Molecular Devices). All of the enzyme and substrate concentrations indicated are the final concentrations in the assay. The enzyme activity as a percentage was calculated based on the initial velocity and compared to the control without inhibitor compound. All tests were performed at least in duplicates.
(§3) The observed rate constant (kobs) per inhibitor concentration was calculated from the slope of a semilog plot of the enzyme activity in percent versus preincubation time.
(§4) By fitting these values, the irreversible kinetic parameters maximum inactivation rate (kinact) and the inhibitor concentration that produces half-maximal rate of inactivation (KI) were obtained. Finally, the inhibitors were characterized by calculating kinact/KI. Where no saturation curve could be observed, KI and kinact were determined from the linear part of plot 1/kobs versus 1/[I].

For another test, the target named is T2, NDM-1 (Klebsiella pneumoniae, UniProt C7C422).
T2 construct: made in house
T2 sequence (C7C422 29-270, looked up): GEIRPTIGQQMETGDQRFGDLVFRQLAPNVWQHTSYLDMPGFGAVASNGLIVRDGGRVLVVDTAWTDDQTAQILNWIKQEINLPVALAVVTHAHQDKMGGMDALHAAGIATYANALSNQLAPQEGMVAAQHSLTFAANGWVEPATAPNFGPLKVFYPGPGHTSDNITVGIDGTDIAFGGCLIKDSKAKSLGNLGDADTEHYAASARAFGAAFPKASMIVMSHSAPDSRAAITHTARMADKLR
Briefly: Time-dependent inactivation kinetics of purified NDM-1 (imipenem). The format is biochemical. As to the method:
as §2, §3, §4

Setting [13] is: Escherichia coli, KPC-3 strain, read-out: MIC.
Setting [14] is: KPC-2 strains, one value per strain.
Where [15] appears, read: Enterobacter cloacae, KPC-3 strain, read-out: MIC.

As to `C[C@@H](O)[C@H]1C(=O)N2C(C(=O)O)=C(S[C@@H]3CN[C@H](CNS(N)(=O)=O)C3)[C@H](C)[C@H]12` [DOR, doripenem], the MIC (in general, the smallest concentration in the dilution series that meets the test's criterion for growth inhibition) was over 64 µg/mL in test [1] (NDM-1 + OXA-232 strains); over 64 µg/mL in test [1] (NDM-5 + OXA-181 strains); over 64 µg/mL in [2]; over 64 µg/mL in test [3] (NDM-1 + OXA-23-like strains); over 64 µg/mL in test [3] (NDM-1 + OXA-24-like, OXA-58-like strains); 4 µg/mL in test [4] (Escherichia coli, KPC-2 strains, one value per strain, read-out: MIC). The MIC in test [4] (setting [13]) is 4 µg/mL; in [4] (setting [14]) it was 2 µg/mL; in test [5] (setting [15]), 2 µg/mL; in test [6] (NDM-1 + GES-2 strain), 64 µg/mL; in test [6] (NDM-5 + OXA-48 strain), over 64 µg/mL; in [6] (NDM-5 + OXA-181 strains, one value per strain), 64 µg/mL. The MIC in test [6] (NDM-5 + OXA-232 strains, one value per strain) was over 64 µg/mL.

Take `O=C(O)CN(CCN(CC(=O)O)CC(=O)O)CC(=O)O` [EDTA]: the “enzyme activity after unfolding and stepwise refolding, of control activity” value on VIM-2 [7] is listed as over 80%. In addition, on VIM-2 [8], the “MBL activity restored by addition of exogenous zinc, compared to untreated control” value was “complete or nearly complete (∼80%) restoration of activity”.

As for `C[C@@H](O)[C@H]1C(=O)N2C(C(=O)O)=C(SCCN=CN)C[C@H]12` [IPM, imipenem], the MIC in test [1] (NDM-1 + OXA-232 strains) was over 64 µg/mL; in [1] (NDM-5 + OXA-181 strains) it was over 64 µg/mL; in [2] it was over 64 µg/mL; in test [3] (NDM-1 + OXA-23-like strains), over 64 µg/mL; in [4] (setting [13]) it was 8 µg/mL; in test [5] (Enterobacter cloacae, KPC-2 strains, one value per strain, read-out: MIC) it was 8 µg/mL. For the same molecule, the MIC was 16 µg/mL in [5] (setting [15]), 16 µg/mL in test [5] (setting [14]), 16 µg/mL in test [6] (NDM-1 + GES-2 strain) and 32 µg/mL in [6] (NDM-5 + OXA-48 strain).

In the case of `c1ccc(CN(Cc2ccccn2)Cc2ccccn2)nc1` [TPA, Tris-picolylamine], the pKd in [9] was 11.00. For the same molecule, the “meropenem MIC” value turned out to be 0.125 µg/mL in test [10] and 1 µg/mL in [11]. Further, the pIC50 (usually −log10 of the IC50, conventionally taken in molar units) in the test with HepG2 cells was 5.01.

Take `CN(C[C@H](O)[C@@H](O)[C@H](O)[C@H](O)CO)C(=O)c1ccc(CN(Cc2ccccc2)Cc2ccccc2)nc1` [ZN222]: the “meropenem MIC” value in test [10] and in [11] was 32 µg/mL each time.

With `CN(C[C@H](O)[C@@H](O)[C@H](O)[C@H](O)CO)C(=O)c1ccc(CN(Cc2ccccc2)Cc2ccccn2)nc1` [ZN223], the kinact (commonly the rate constant of inactivation at saturating inhibitor) is 0.000617 s⁻¹ on VIM-2 [12] and 0.000633 s⁻¹ at NDM-1. The kinact/KI (commonly the second-order rate constant of inactivation) was 11.7 M⁻¹ s⁻¹ on VIM-2 [12] and 1 M⁻¹ s⁻¹ at NDM-1. The “meropenem MIC” value in test [10] and in test [11] was 32 µg/mL each time.

As for `CN(C[C@H](O)[C@@H](O)[C@H](O)[C@H](O)CO)C(=O)c1ccc(CN(Cc2ccccn2)Cc2ccccn2)cc1` [ZN228], the kinact at VIM-2 [12] was 0.000567 s⁻¹; on NDM-1, 0.00127 s⁻¹. The results for the kinact/KI on VIM-2 [12] and at NDM-1 were 23.3 M⁻¹ s⁻¹ and 1.83 M⁻¹ s⁻¹, respectively. For the same molecule, the “meropenem MIC” value in test [10] and in test [11] was 32 µg/mL throughout.
